Test results: US20260376293A1, “METHODS FOR STUDYING GPR158 PHARMACOLOGY AND IDENTIFICATION OF ITS LIGANDS” (UNIVERSITY OF FLORIDA RESEARCH FOUNDATION, INCORPORATED, priority 2022, published 2026)

Assays:
GPR158 [1] = biological target: T1, GPR158 (Homo sapiens, UniProt Q5T848); test: BRET β-arrestin recruitment assay; assay type: cell-based; design: expressed in transfected cells; host or cells: HEK293 (HEK293FT in the BRET methods); settings: yPET-β-arrestin-2, HEK293 cells
T1 sequence (Q5T848 24-1215): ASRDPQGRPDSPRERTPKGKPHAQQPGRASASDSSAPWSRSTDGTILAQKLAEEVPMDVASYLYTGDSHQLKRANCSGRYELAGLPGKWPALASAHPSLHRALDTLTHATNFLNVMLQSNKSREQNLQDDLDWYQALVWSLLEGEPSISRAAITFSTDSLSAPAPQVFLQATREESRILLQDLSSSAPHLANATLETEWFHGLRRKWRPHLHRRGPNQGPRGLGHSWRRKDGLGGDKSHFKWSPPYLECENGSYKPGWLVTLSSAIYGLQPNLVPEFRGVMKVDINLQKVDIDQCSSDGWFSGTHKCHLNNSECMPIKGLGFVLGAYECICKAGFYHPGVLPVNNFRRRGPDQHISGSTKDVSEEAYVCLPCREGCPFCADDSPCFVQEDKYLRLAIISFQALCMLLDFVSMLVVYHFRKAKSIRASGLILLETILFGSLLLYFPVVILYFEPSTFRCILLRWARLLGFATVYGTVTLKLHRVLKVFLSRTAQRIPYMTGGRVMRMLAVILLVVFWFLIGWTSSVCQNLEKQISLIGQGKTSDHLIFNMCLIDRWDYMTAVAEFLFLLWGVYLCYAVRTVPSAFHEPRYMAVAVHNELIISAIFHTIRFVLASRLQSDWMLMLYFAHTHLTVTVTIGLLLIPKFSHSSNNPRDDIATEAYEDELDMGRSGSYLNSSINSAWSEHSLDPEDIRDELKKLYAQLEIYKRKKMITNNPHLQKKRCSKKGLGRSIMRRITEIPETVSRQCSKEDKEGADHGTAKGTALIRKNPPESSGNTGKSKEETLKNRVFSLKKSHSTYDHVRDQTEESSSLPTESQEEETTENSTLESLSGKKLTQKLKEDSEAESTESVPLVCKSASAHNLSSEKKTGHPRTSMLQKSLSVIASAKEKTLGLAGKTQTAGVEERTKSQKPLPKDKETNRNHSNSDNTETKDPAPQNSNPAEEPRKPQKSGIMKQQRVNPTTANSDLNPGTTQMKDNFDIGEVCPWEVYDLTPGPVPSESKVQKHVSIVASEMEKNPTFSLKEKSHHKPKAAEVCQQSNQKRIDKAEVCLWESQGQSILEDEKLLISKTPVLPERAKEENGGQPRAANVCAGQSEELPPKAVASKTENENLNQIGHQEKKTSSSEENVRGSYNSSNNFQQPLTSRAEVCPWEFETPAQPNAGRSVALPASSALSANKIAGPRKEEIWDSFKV
Text: FIGS. 6A-6B. Effect of glycine on GPR158 coupling to β-arrestin. A) Schematic of the BRET based β-arrestin recruitment assay B) Dose response profile evaluating recruitment of β-arrestin using BRET-based recruitment assay that measures association of yPET-β-arrestin-2 with Rluc8-tagged receptor: GPR158 or kOR used as a positive control. Constructs were co-transfected into HEK293 cells stimulated with increasing concentration of U50488 or glycine. Data shown fold over basal of 4 independent experiments performed in triplicate mean±s.e.m.
The inventors further tested whether glycine or taurine could induce GPR158 to activate G proteins as canonical GPCRs do. In these experiments, the inventors used a reverse strategy where the inventors monitored generation of the BRET signal in the same assay (FIG. 5A).
Cells were co-transfected with Rluc-tagged receptors and YPet-β-arrestin2. Coelenterazine H were diluted at 5 μM in BRET buffer and added to cells with glycine or U50488 as indicated. BRET ratio was determined by calculating the ratio of the light emitted by the Venus (535 nm with a 30 nm band path width) over the light emitted by RLuc (475 nm with a 30 nm band path width) in order to measure an increase of the signal when β-arrestin is recruited. BRET ratio was calculated and fold over basal response was plotted as a function of kOR condition.

GPR158 [2] = biological target: T1, GPR158; test: BRET cAMP assay in HEK293 cells expressing GPR158; assay type: cell-based; design: expressed in transfected cells; host or cells: HEK293FT
Method: FIGS. 2A-2C. Taurine signals through GPR158 to regulate cAMP. A) Time course of taurine (100 μM) effect on cAMP concentration in HEK293 cells. Cells were transfected with indicated constructs and cAMP was measured by the BRET assay. B) Quantification of taurine effect on maximal amplitude of the cAMP response. Data shown represent mean±s.e.m. determined from 3-9 independent experiments performed in triplicate. ****p<0.001 (one-way ANOVA). Columns with no fill (Ctrl), columns with angled-line fill (Taurine) C) Comparison of glycine and taurine effects on GPR158-mediated changes in cAMP response. Glycine or taurine was applied to HEK293 cells expressing either GPR158 alone or with RGS7/Gβ5 and the CAMP change was subtracted from the background response in control cells not expressing GPR158. Data shown represent mean±s.e.m. determined from 3 independent experiments performed in triplicate. *p<0.05, ***p<0.01, ns=p>0.05 (one-way ANOVA) Columns with no fill (Ctrl), columns with short-line fill (Glycine), columns with angled-line fill (Taurine).
HEK293FT cells were seeded in a white flat-bottom 96 well plate (Greiner Bio-One) at 50,000 cells per well and transiently transfected using Metafectene Pro with the manufacturer instruction. 24 h after transfection in DMEM complete medium supplemented of 0.1% of Matrigel (Corning), cells were washed with BRET buffer (Dulbecco's Phosphate-Buffered Saline (PBS) containing 0.5 mM MgCl2 and 0.1% glucose). The RLuc (Renilla luciferase) substrate, coelenterazine H (Research Products International Corp, IL), were diluted at 5 μM in BRET buffer and added to cells. BRET measurements were made in living cells using a microplate reader (PHERAstar FSX; BMG Labtech) equipped with two emission photomultiplier tubes. All measurements were performed at 37 °C.
HEK293FT cells or U87 MG cells (ATCC HTB-14) when indicated were co-transfected with the CAMP sensor Camyel and with untagged receptors (respectively: empty vector, GPR158). BRET ratio was determined by calculating the ratio of the light emitted by RLuc (475 nm with a 30 nm band path width) over the light emitted by the Venus (535 nm with a 30 nm band path width) in order to measure an increase of the signal when cAMP increase. ΔBRET was calculated by subtracting the ctrl cell BRET result from GPR158 expressing cells BRET result in order to get specifically the signal from GPR158 removing all the non-specific signal. Finally, netBRET was calculated by subtraction of the baseline value (basal BRET ratio) recorded prior to glycine stimulation from the experimental BRET signal values and the resulting difference (netBRET ratio).

SMILES	β-arrestin recruitment to GPR158 (GPR158 [1])	type of agonism on GPR158 (GPR158 [2])	cAMP change (GPR158 [2]; HEK293 cells expressing GPR158, taurine 100 μM)	cAMP change in parental cells (GPR158 [2]; HEK293 cells without GPR158, taurine 100 μM)	cAMP change with co-expressed RGS7/Gβ5 (GPR158 [2]; HEK293 cells, GPR158 + RGS7/Gβ5, taurine 100 μM)	GPR158-mediated suppression of cAMP compared with glycine (GPR158 [2]; HEK293 cells, direct comparison)
NCC(=O)O [glycine]	no significant response					
NCCS(=O)(=O)O [taurine, 2-aminoethanesulfonic acid]		partial agonist	significant decrease in cAMP levels	did not produce a response	potentiated by co-expressing RGS7/Gβ5	weaker than the effect of glycine
